# According to patent publication US20250034151A1, “WEE1 INHIBITOR, PREPARATION THEREFOR, AND USE THEREOF” (JIANGSU TASLY DIYI PHARMACEUTICAL CO., LTD., priority 2022, published 2025):
# Like-named read-outs stand apart in the source and are kept apart here.
# What was measured:
# [1] = target: T1, Wee1 protein (Homo sapiens, UniProt P30291); assay: Binding of compound to Wee1 protein and Tracer 178 by TR-FRET (Wee1 kinase inhibitory activity); details: 15 nM WEE1, 50 nM Tracer 178, read-out: IC50 (inhibitory activity against Wee1 kinase)
# T1 construct: purchased Thermo Fisher PR7373A
# T1 sequence (P30291 whole entry): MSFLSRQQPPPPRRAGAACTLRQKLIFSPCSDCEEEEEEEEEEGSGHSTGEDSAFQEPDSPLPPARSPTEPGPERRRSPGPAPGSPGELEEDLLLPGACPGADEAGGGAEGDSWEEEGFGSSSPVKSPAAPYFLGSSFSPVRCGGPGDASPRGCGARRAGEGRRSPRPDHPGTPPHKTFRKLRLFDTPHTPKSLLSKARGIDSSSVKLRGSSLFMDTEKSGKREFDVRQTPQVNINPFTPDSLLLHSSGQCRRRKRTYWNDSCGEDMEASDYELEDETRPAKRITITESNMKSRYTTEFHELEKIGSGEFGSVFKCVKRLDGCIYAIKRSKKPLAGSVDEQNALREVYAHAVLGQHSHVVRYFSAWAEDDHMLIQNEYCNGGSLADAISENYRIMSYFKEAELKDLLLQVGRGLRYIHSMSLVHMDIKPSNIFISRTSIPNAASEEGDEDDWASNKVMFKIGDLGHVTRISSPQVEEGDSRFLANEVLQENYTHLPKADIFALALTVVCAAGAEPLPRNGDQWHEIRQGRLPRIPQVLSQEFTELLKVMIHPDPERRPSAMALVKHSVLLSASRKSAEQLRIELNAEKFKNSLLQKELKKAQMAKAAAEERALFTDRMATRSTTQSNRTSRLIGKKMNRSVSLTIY
# Protocol: First, solutions of the compounds in different concentration gradients were prepared. The compounds were dissolved in DMSO and the compounds were diluted 4 folds with a total of 10 dose points and 2 parallel replicates for each concentration.
# The IC50 for inhibition of enzyme activity by the compounds was then calculated using GraphPad Prism 6 and fitted with a log (inhibitor) vs. response-Variable slope mode. The fitting equation was: Y=Bottom+(Top−Bottom)/(1+10^((Log IC50−X)*HillSlope)), wherein Y represents the percentage of residual enzyme activity known and X represents the known concentration of compound after the logarithm.
# [2] = system: H1299 cells; assay: Anti-proliferative effect on H1299 cells by Cell Titer-Glo; assay type: cell-based; details: 3 days
# Protocol: (§1) Test Example 2: Evaluation of Cell Proliferation Inhibitory Activity
# 1. Evaluation of the Anti-Proliferative Effect of Compounds on H1299 Cells by the Cell Titer-Glo Method
# (§2) Compound solutions of different concentration gradients were prepared. […] The cell growth group without compound was used as a positive control (maximum signal control) and the medium was used as a negative control (minimum signal control), while ensuring that the final level of DMSO in each reaction well was 0.2%. After removing the medium from the 384-well plate, 25 ul of the configured compound at different concentrations was transferred into the well plate and the compound and cells were incubated in the cell incubator at 37° C. with 5% CO2 for 3 days.
# The 384-well plates were removed from the cell incubator and allowed to equilibrate for 1h to room temperature. 25 ul of Cell Titer-Glo assay was added to each well, lysed on a shaker for 2 min and then read out (Luminescence) using a BMG PHERAStar after 10 min incubation. Calculate the inhibition rate from the luminescence signal: first calculate the average of the positive control (maximum signal control) and the negative control (minimum signal control).
# was used to calculate the rate of inhibition of the cells by different concentrations of the compounds. The IC50 of the compound on cell activity inhibition was calculated by fitting a log(inhibitor) vs. response-Variable slope model to GraphPad Prism 6. The fitted equation was: Y=Bottom+(Top−Bottom)/(1+10^((Log IC50−X)*HillSlope)), where Y represents the rate of inhibition and X represents the concentration of the known compound after Log.
# (§3) The results of the in vitro anti-cell proliferation assays of H1299 and MIA Paca-2 for the example compounds according to the method described above are shown in Table 2, wherein the IC50 of each compound was determined and classified according to the description as follows: […]
# [3] = system: MIA PaCa2 cells; assay: Anti-proliferative effect on MIA PaCa2 cells by Cell Titer-Glo; assay type: cell-based; details: Homo sapiens, MIA PaCa-2, 72 h, 3 days, read-out: MIA PaCa 2 (IC50, inhibition of proliferation in vitro)
# Protocol: as §1
# 2. Evaluation of the Anti-Proliferative Effect of Compounds on MIA PaCa2 Cells by the Cell Titer-Glo Method
# as §2
# The 384-well plates were removed from the cell incubator and allowed to equilibrate for 1 h to room temperature. 25 ul of Cell Titer-Glo assay was added to each well, lysed on a shaker for 2 min and then read out (Luminescence) using a BMG PHERAStar after 10 min incubation. Calculate the inhibition rate from the luminescence signal: first calculate the average of the positive control (maximum signal control) and the negative control (minimum signal control).
# was used to calculate the rate of inhibition of the cells by different concentrations of the compounds. The IC50 of the compound on cell activity inhibition was calculated by fitting a log(inhibitor) vs. response-Variable slope model to GraphPad Prism 6. The fitted equation was: Y=Bottom+(Top-Bottom)/(1+10^((Log IC50−X)*HillSlope)), wherein Y represents the rate of inhibition and X represents the concentration of the known compound after Log.
# as §3
# [4] = Liver microsomes in vitro stability (mouse); assay type: in vitro ADME; details: read-out: T1/2/min
# Protocol: 1. Preparation of Working Solution:
# Microsomes were taken out from the −80° C. refrigerator, rapidly melted in a 37° C. water bath and placed on ice until ready to use. The test article was diluted with DMSO to prepare a 10 mM stock solution, and then diluted with acetonitrile to a 0.5 mM secondary stock solution. […] NADPH was diluted with Buffer C to a working solution of 6 mM for the starter solution. An acetonitrile solution containing an internal standard was prepared as the precipitant, and Verapamil-HCl was chosen as the internal standard at a concentration of 4 ng/ml.
# 2. Experimental Procedure:
# A round-bottom well plate was taken, noted as the reaction plate, and the prepared working solution for each compound was dispensed into the well plate according to the number of replicates and time points (0 h samples were also added to the reaction plate), 30 μL/well; the plate was incubated at 37° C. for 10 min. A separate plate with pointed bottom wells, noted as a precipitation plate, was added with 135 μL precipitant per well; 0 h samples were transferred to the plate after 10 min incubation and 15 μL of starter solution was added; the plate was placed on ice before centrifugation.
# The diluted starter solution was added in sufficient quantity to the dispensing plate to facilitate the multichannel pipette aspiration operation.
# The reaction was carried out on a warm incubation shaker and 15 μL of starter solution/sample is added to the plate using a multichannel pipette. The reaction was mixed with a slight shake to initiate the reaction, which was accurately timed and recorded using a timer. In general, samples with shorter reaction times are initiated late and vice versa early, allowing sufficient time for multiple plate manipulation to terminate the reaction. For example, as for the four experiments of 5, 15, 30, and 60 min, the 60 min experiment was started first, and the 5 min experiment was started later, so as to leave sufficient time for the 5 min group.
# After the reaction time had elapsed, all the solution in the plate was aspirated using the multichannel pipette and added to the precipitation plate to terminate the reaction at that point in time. After all reactions had been terminated, the plates were shaken for ten minutes on a plate shaker at 600 rpm to precipitate the protein. The plate was centrifuged at 4° C. for 15 minutes at maximum rpm. 80 μL of supernatant was taken, 320 μL of pure water was added and mixed for LC-MS analysis.
# [5] = Membrane permeability study (Caco-2); assay type: in vitro ADME; details: human; for efflux ratio at 90 min, 10 µM: Caco-2, pH 7.4; for Papp A→B at 90 min, 10 µM / Papp B→A at 90 min, 10 µM: pH 7.4, Caco-2, 10 μM; for Papp A→B at 90 min, 10 µM: apical to basolateral; for Papp B→A at 90 min, 10 µM: basolateral to apical
# Protocol: Caco-2 cells were purchased from the […] (Rockville, MD). The cell culture medium was modified Eagle's medium (MEM) containing 10% inactivated fetal bovine serum and 1% non-essential amino acids.
# The cells were incubated for 21-28 days after inoculation for transport experiments and the apparent permeability (Papp) of Lucifer Yellow was used to characterize and verify the compactness of the cell monolayer. […] A 10 μM working solution of the compound to be tested was added to the apical side and basolateral side of Caco-2 and incubated at 37° C. for 90 min. After the incubation, dilute the samples on the apical side and basolateral side, and the concentrations of compounds on the apical and basolateral sides were detected by LC-MS/MS, and the concentrations of the compounds were quantified by standard curve.
# [6] = Homo sapiens, NCI-H1299, 72 h, read-out: H1299 (IC50, inhibition of proliferation in vitro)
Compound,IC50 [1],"IC50 [2, 6]",IC50 [3],half-life at 1 µM [4],"efflux ratio at 90 min, 10 µM [5]","Papp A→B at 90 min, 10 µM [5]","Papp B→A at 90 min, 10 µM [5]","IC50 ([2]; listed as Compound61, read-out: H1299 (IC50, inhibition of proliferation in vitro))"
C=CCn1c(=O)c2cnc(Nc3ccc(N4C5CCC4CN(C)C5)cc3)nc2n1-c1cccc(C(C)(C)O)n1 [Compound 25],5 to 10 nM,1000 to 2000 nM,1000 to 2000 nM,14.1 min,–,–,–,–
C=CCn1c(=O)c2cnc(Nc3ccc(N4CCC(N5CC6CC5CN6C)CC4)cc3)nc2n1-c1cccc(C(C)(C)O)n1 (centres unmarked) [Compound 18],5 to 10 nM,2000 to 5000 nM,100 to 1000 nM,> 120 min,–,–,–,–
C=CCn1c(=O)c2cnc(Nc3ccc(N4CC5CC(CN(CCF)C5)C4)cc3)nc2n1-c1cccc(C(C)(C)O)n1 [Compound 37],10 to 100 nM,2000 to 5000 nM,100 to 1000 nM,21.7 min,–,–,–,–
C=CCn1c(=O)c2cnc(Nc3ccc(N4CC5CC(CN(C)C5)C4)cc3)nc2n1-c1cccc(C(C)(C)O)n1 [Compound 23],10 to 100 nM,> 10000 nM,2000 to 5000 nM,38.7 min,–,–,–,–
C=CCn1c(=O)c2cnc(Nc3ccc(N4CCC(N(C)C5CN6CCC5CC6)CC4)cc3)nc2n1-c1cccc(N=S(C)(C)=O)n1 (centres unmarked) [Compound 8],5 to 10 nM,5000 to 10000 nM,–,> 120 min,–,–,–,–
C=CCn1c(=O)c2cnc(Nc3ccc(N4CC5CC(C4)N5C(C)C)cc3)nc2n1-c1cccc(C(C)(C)O)n1 [Compound 42],10 to 100 nM,100 to 1000 nM,100 to 1000 nM,–,7.99,6.22 ×10⁻⁶ cm/s,49.7 ×10⁻⁶ cm/s,–
C=CCn1c(=O)c2cnc(Nc3ccc4c(c3)CN(C3CCN(C)CC3)C4=O)nc2n1-c1cccc(N=S(C)(C)=O)n1 [Compound 15],5 to 10 nM,> 10000 nM,2000 to 5000 nM,> 120 min,–,–,–,–
C=CCn1c(=O)c2cnc(Nc3ccc(N4CCN(C5CN6CCC5CC6)CC4)cc3)nc2n1-c1cccc(N=S(C)(C)=O)n1 (centres unmarked) [Compound 11],5 to 10 nM,100 to 1000 nM,100 to 1000 nM,110 min,–,–,–,–
C=CCn1c(=O)c2cnc(Nc3ccc(N4CC5CC(CN(CC(F)(F)F)C5)C4)cc3)nc2n1-c1cccc(C(C)(C)O)n1 [Compound 33],10 to 100 nM,1000 to 2000 nM,2000 to 5000 nM,–,0.83,9.12 ×10⁻⁶ cm/s,7.56 ×10⁻⁶ cm/s,–
C=CCn1c(=O)c2cnc(Nc3ccc(N4CC5CC(C4)N5C)cc3)nc2n1-c1ccc2oc(=O)n(CC)c2c1 [Compound 54],5 to 10 nM,2000 to 5000 nM,2000 to 5000 nM,77 min,–,–,–,–
C=CCn1c(=O)c2cnc(Nc3ccc(C(=O)N(C)C4CN5CCC4CC5)cc3)nc2n1-c1cccc(C(C)(C)O)n1 (centres unmarked) [Compound 62],5 to 10 nM,1000 to 2000 nM,100 to 1000 nM,25.1 min,–,–,–,–
C=CCn1c(=O)c2cnc(Nc3ccc(N4CC5CC(C4)N5C)cc3)nc2n1-c1ccc2cnn(CC)c2n1 [Compound 61],< 5 nM,–,–,> 120 min,–,–,–,2000 to 5000 nM
C=CCn1c(=O)c2cnc(Nc3ccc(N4CC5CC(C4)N5C)cc3)nc2n1-c1ccc2c(c1)C(C)(O)CO2 (centres unmarked) [Compound 57],10 to 100 nM,> 10000 nM,> 10000 nM,43.9 min,–,–,–,–
C=CCn1c(=O)c2cnc(Nc3ccc(N4C[C@@H]5C[C@H]4CN5C)c(C)c3)nc2n1-c1cccc(C(C)(C)O)n1 [Compound 12],5 to 10 nM,100 to 1000 nM,100 to 1000 nM,31.5 min,11.8,2.84 ×10⁻⁶ cm/s,33.5 ×10⁻⁶ cm/s,–
C=CCn1c(=O)c2cnc(Nc3ccc(N4C[C@H]5C[C@@H](C4)N5C)cc3)nc2n1-c1cccc(N=S(C)(C)=O)n1 [Compound 39],< 5 nM,100 to 1000 nM,≤ 100 nM,> 120 min,–,–,–,–
C=CCn1c(=O)c2cnc(Nc3ccc(N4CC5CCC(C4)N5C)cc3)nc2n1-c1cccc(C(C)(C)O)n1 [Compound 28],5 to 10 nM,100 to 1000 nM,100 to 1000 nM,15 min,–,–,–,–
C=CCn1c(=O)c2cnc(Nc3ccc4c(c3)C(=O)N(C3CCN(C)CC3)C4)nc2n1-c1cccc(N=S(C)(C)=O)n1 [Compound 24],10 to 100 nM,5000 to 10000 nM,100 to 1000 nM,> 120 min,–,–,–,–
C=CCn1c(=O)c2cnc(Nc3ccc(N(C)[C@@H]4CN5CCC4CC5)cc3)nc2n1-c1cccc(C(C)(C)O)n1 [Compound 19],< 5 nM,> 10000 nM,> 10000 nM,48.1 min,–,–,–,–
